Laboratory results reported in patent US20090023646A1, “GHRH analogues” (Centre Hospitalier de L'Universite de Montreal (CHUM), priority 2002, published 2009).
Square brackets hold non-standard residues; d marks the D form. Ends that are not written are not given here. Peptide text beside a SMILES is read from it.

How the values were obtained:
in vitro = settings: male, human, plasma, Mean residual amount
Protocol: Ten μl of a 300 M solution of hGHRH (1-29)NH2 or of a GHRH analogue was solubilized in dimethylsulfoxide (DMSO) and incubated in one of the following conditions: a—190 μl serum (1/100 dilution in picopure water) from 2-month-old male Sprague Dawley rats, at 37° C. for 0, 8, 15, 30 or 60 min, in polypropylene tubes; b—190 μl of human healthy volunteer plasma (from Human Whole Blood Na EDTA, males, drug free (Algorithme Pharma Inc.); project: MTL-P2-155; Lot: MTLP2155-01, supplied by LAB Dev Int); and c—190 μl of human healthy volunteer pooled serum, Lot: X409 (supplied by LAB Dev Int), at 37° C. for 0, 60, 120, 180 or 420 min, in polypropylene tubes. Proteolysis was stopped by adding 800 μl of ice-cold stop buffer (potassium-phosphate buffer, acidified to pH 0.8 with trifluoroacetic acid (TFA) and boiling 5 min (rat serum only). After centrifugation (12000 g, 5 min, 4° C.) (rat serum only), serum-peptide mixtures were passed through a conditioned Sep-Pak C-18 cartridge to extract native GHRH or a GHRH analogue residual concentrations from serum proteins. The native GHRH or the analogue was eluted in 2 ml of 50% acetonitrile-0.01% TFA/50% 0.01% aqueous TFA. Two hundred μl of extracted peptide, representing 1 μg of GHRH or analogue at time 0, was quantified by analytical HPLC, using one μ-Bondapak C18 column (10 μm particle size, 0.39×15 cm) (rat serum) or two C18 column in series (human serum and plasma) and a binary solvent system composed of NaClO4 0.01 M, pH 2.5 and acetonitrile. A linear gradient from 30 to 60% acetonitrile over 45 min (rat serum) or 30 to 50% (human serum and plasma) was used.
More specifically, the values represent the mean, standard deviation and standard error from the mean of 3 to 7 experiments.

[1] = In vitro proteolysis assay in rat serum; assay type: in vitro ADME; settings: mean±SEM; for Residual concentration: incubation 0 min; for remaining at 8 min, 15 µM / remaining at 0.25 h, 15 µM / remaining at 0.5 h, 15 µM / remaining at 1 h, 15 µM: male, Sprague Dawley, read-out: Residual concentration; for remaining at 8 min, 15 µM: diluted 1/100, incubation 8 min; for remaining at 0.25 h, 15 µM: diluted 1/100, incubation 15 min; for remaining at 0.5 h, 15 µM: diluted 1/100, incubation 30 min; for remaining at 1 h, 15 µM: diluted 1/100, incubation 60 min
Protocol: Proteolysis was stopped by adding 800 μl of ice-cold stop buffer (potassium-phosphate buffer, acidified to pH 0.8 with trifluoroacetic acid (TFA) and boiling 5 min (rat serum only). After centrifugation (12000 g, 5 min, 4° C.) (rat serum only), serum-peptide mixtures were passed through a conditioned Sep-Pak C-18 cartridge to extract native GHRH or a GHRH analogue residual concentrations from serum proteins. The native GHRH or the analogue was eluted in 2 ml of 50% acetonitrile-0.01% TFA/50% 0.01% aqueous TFA. Two hundred μl of extracted peptide, representing 1 μg of GHRH or analogue at time 0, was quantified by analytical HPLC, using one μ-Bondapak C18 column (10 μm particle size, 0.39×15 cm) (rat serum) or two C18 column in series (human serum and plasma) and a binary solvent system composed of NaClO4 0.01 M, pH 2.5 and acetonitrile. A linear gradient from 30 to 60% acetonitrile over 45 min (rat serum) or 30 to 50% (human serum and plasma) was used.

human GHRH receptor [2] = target: T1, human GHRH receptor (Homo sapiens, UniProt Q02643); experiment: Competitive 125I-GHRH binding assay in BHK cell membrane preparations expressing the human GHRH receptor; settings: ratio IC50 of hGHRH(1-29)-NH2/IC50 analogue, mean±SEM
T1 construct: expressed in transfected cells; host or cells: BHK (baby hamster kidney) 570 cells
T1 sequence (Q02643 23-423): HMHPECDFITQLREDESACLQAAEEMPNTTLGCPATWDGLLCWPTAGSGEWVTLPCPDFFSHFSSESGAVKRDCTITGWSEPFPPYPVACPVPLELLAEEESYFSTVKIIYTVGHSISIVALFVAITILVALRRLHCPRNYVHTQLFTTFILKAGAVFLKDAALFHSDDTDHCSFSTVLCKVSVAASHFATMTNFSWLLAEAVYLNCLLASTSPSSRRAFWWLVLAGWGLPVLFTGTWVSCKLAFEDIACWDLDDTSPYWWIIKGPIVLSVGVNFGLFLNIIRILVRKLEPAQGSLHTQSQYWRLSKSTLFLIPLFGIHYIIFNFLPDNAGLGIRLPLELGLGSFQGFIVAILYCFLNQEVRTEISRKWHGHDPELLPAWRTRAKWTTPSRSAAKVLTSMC
Protocol: Non specific binding was determined in presence of 1 μM hGHRH(1-29)NH2. Incubation was carried out at equilibrium (23° C., 60 min) and stopped by centrifugation (12,000 g, 5 min, at 4° C.). The radioactivity content in pellets was determined by gamma counting. The affinity of hGHRH(1-29) NH2 was tested in each experiment to assess the validity of the assay and determine the relative affinity of the analogues.
Values represent the mean±SEM of 3 experiments performed in triplicate for the analogues and the mean±SEM of 2 experiments performed in triplicate for hGHRH(1-44) NH2.
For the binding assay results presented in Tables 8 to 11, values represent the mean±SEM of 8 independent experiments performed in triplicate for the analogues and the mean±SEM of 4 experiments performed in triplicate for hGHRH(1-29)NH2. […] The relative affinity was obtained by taking the ratio IC50 of hGHRH (1-29)-NH2/IC50 analogue.

human GHRH receptor [3] = target: T2, human GHRH receptor (human, UniProt Q02643 23-423); experiment: competition with [125I-Tyr10]hGHRH(1-44)NH2, BHK cell membrane preparations expressing the human GHRH receptor
T2 construct: whole, on cells; Assayed in BHK cell membrane preparations (25 ug protein per tube), not on intact cells; also called hGHRH-R; hGHRH receptor
T2 sequence (looked up): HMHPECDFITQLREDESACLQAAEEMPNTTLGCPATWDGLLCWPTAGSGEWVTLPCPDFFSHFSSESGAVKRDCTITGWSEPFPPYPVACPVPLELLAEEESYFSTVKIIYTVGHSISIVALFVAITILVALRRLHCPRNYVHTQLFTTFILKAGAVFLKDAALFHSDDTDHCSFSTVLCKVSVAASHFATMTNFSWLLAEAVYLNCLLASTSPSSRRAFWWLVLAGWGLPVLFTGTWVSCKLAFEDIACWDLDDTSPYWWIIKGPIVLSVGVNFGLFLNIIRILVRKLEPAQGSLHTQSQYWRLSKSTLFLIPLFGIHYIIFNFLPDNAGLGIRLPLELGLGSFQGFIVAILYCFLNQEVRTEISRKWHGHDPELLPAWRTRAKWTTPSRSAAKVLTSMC
Protocol: Incubation was carried out at equilibrium (23° C., 60 min) and stopped by centrifugation (12,000 g, 5 min, at 4° C.). The radioactivity content in pellets was determined by gamma counting. […] The Ligand computerized program was used to analyze competition curves of GHRH analogues reported in Tables 2 and 3 and to determine their IC₅₀ (Gaudreau P. et al. (1992) J Med Chem, 35: 1864-1869).
IC₅₀ is the concentration of peptide inhibiting 50% of ¹²⁵I-GHRH specific binding as determined by the LIGAND program for analysis of competition curves.

rat GHRH receptor = target: T3, rat GHRH receptor (rat, UniProt Q02644 23-464); experiment: competition with [125I-Tyr10]hGHRH(1-44)-NH2, rat anterior pituitary membrane preparations
T3 construct: whole, on cells; Native tissue membrane preparation; In the in vivo study it is the receptor on rat pituitary somatotrophs; also called rat pituitary GHRH receptor
T3 sequence (looked up): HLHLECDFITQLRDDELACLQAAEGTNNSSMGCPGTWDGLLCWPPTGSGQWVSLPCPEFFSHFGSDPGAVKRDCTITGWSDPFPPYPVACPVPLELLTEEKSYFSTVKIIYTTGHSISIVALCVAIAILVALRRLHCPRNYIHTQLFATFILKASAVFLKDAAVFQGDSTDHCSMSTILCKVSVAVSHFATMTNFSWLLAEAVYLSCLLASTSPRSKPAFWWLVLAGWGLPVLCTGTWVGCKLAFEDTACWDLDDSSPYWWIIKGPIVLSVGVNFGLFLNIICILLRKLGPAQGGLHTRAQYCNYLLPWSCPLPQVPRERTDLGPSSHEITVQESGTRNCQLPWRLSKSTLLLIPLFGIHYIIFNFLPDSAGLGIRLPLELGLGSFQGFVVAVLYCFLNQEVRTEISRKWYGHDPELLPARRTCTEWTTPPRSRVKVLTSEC

CC[C@H](C)[C@H](NC(=O)[C@H](C)NC(=O)[C@H](CC(=O)O)NC(=O)[C@@H](C)NC(=O)[C@@H](N)Cc1ccc(O)cc1)C(=O)N[C@@H](Cc1ccccc1)C(=O)N[C@H](C(=O)N[C@@H](C)C(=O)N[C@@H](CO)C(=O)N[C@@H](Cc1ccc(O)cc1)C(=O)N[C@@H](CCCNC(=N)N)C(=O)N[C@@H](CCCCN)C(=O)N[C@H](C(=O)N[C@@H](CC(C)C)C(=O)N[C@@H](C)C(=O)N[C@@H](CCC(N)=O)C(=O)N[C@@H](CC(C)C)C(=O)N[C@@H](CO)C(=O)N[C@@H](C)C(=O)N[C@@H](CCCNC(=N)N)C(=O)N[C@@H](CCCCN)C(=O)N[C@@H](CCCCN)C(=O)N[C@@H](CC(C)C)C(=O)N[C@@H](CCC(N)=O)C(=O)N[C@@H](CC(=O)O)C(=O)N[C@H](C(=O)N[C@@H](CCSC)C(=O)N[C@@H](CO)C(=O)N[C@@H](CCCNC(=N)N)C(N)=O)[C@@H](C)CC)C(C)C)[C@@H](C)O [GHRH analogue #1, [D-Ala^2, Ala^8, Ala^15, Lys^22] hGHRH(1-29)-NH2] (H-Y[dA]DAIFTASYRKVLAQLSARKKLQDIMSR-NH2; N-terminus assumed)
remaining at 1 h, 15 µM (in vitro): 79%
remaining at 2 h, 15 µM (in vitro): 63%
remaining at 3 h, 15 µM (in vitro): 68%
Residual concentration [1]: 100 ± 0 % of initial concentration
remaining at 8 min, 15 µM [1]: 75 ± 12%
remaining at 0.25 h, 15 µM [1]: 70 ± 15%
remaining at 0.5 h, 15 µM [1]: 53 ± 8%
remaining at 1 h, 15 µM [1]: 30 ± 6%
Relative binding affinity (R1) in comparison with hGHRH(1-29)NH2 in BHK cells expressing the hGHRH receptor (human GHRH receptor [2]; listed as 1): 499 ± 234
Relative binding affinity (R1) in comparison with hGHRH(1-29)NH2 in BHK cells expressing the hGHRH receptor (human GHRH receptor [2]; listed as #1): significantly higher binding affinity

CC[C@H](C)[C@H](NC(=O)[C@H](C)NC(=O)[C@H](CC(=O)O)NC(=O)[C@@H](C)NC(=O)[C@@H](N)Cc1ccc(O)cc1)C(=O)N[C@@H](Cc1ccccc1)C(=O)N[C@H](C(=O)N[C@@H](CC(N)=O)C(=O)N[C@@H](CO)C(=O)N[C@H](Cc1ccc(O)cc1)C(=O)N[C@@H](CCCNC(=N)N)C(=O)N[C@@H](CCCCN)C(=O)N[C@H](C(=O)N[C@@H](CC(C)C)C(=O)NCC(=O)N[C@@H](CCC(N)=O)C(=O)N[C@@H](CC(C)C)C(=O)N[C@@H](CO)C(=O)N[C@@H](C)C(=O)N[C@@H](CCCNC(=N)N)C(=O)N[C@@H](CCCCN)C(=O)N[C@@H](CCCCN)C(=O)N[C@@H](CC(C)C)C(=O)N[C@@H](CCC(N)=O)C(=O)N[C@@H](CC(=O)O)C(=O)N[C@H](C(=O)N[C@@H](CCSC)C(=O)N[C@@H](CO)C(=O)N[C@@H](CCCNC(=N)N)C(N)=O)[C@@H](C)CC)C(C)C)[C@@H](C)O [GHRH analogue #3, [D-Ala^2, D-Tyr^10, Lys^22] hGHRH(1-29)-NH2] (H-Y[dA]DAIFTNS[dY]RKVLGQLSARKKLQDIMSR-NH2; N-terminus assumed)
remaining at 1 h, 15 µM (in vitro): 87%
remaining at 2 h, 15 µM (in vitro): 78%
remaining at 3 h, 15 µM (in vitro): 81%
Residual concentration [1]: 100 ± 0 % of initial concentration
remaining at 8 min, 15 µM [1]: 82 ± 7%
remaining at 0.25 h, 15 µM [1]: 88 ± 7%
remaining at 0.5 h, 15 µM [1]: 70 ± 12%
remaining at 1 h, 15 µM [1]: 36 ± 4%
Relative binding affinity (R1) in comparison with hGHRH(1-29)NH2 in BHK cells expressing the hGHRH receptor (human GHRH receptor [2]; D-Tyr^10, Lys^22]human GHRH(1-29)NH2): 239 ± 55

CC[C@H](C)[C@H](NC(=O)[C@H](C)NC(=O)[C@H](CC(=O)O)NC(=O)[C@@H](C)NC(=O)[C@@H](N)Cc1ccc(O)cc1)C(=O)N[C@@H](Cc1ccccc1)C(=O)N[C@H](C(=O)N[C@@H](C)C(=O)N[C@@H](CO)C(=O)N[C@H](Cc1ccc(O)cc1)C(=O)N[C@@H](CCCNC(=N)N)C(=O)N[C@@H](CCCCN)C(=O)N[C@H](C(=O)N[C@@H](CC(C)C)C(=O)N[C@@H](C)C(=O)N[C@@H](CCC(N)=O)C(=O)N[C@@H](CC(C)C)C(=O)N[C@@H](CO)C(=O)N[C@@H](C)C(=O)N[C@@H](CCCNC(=N)N)C(=O)N[C@H](CCCCN)C(=O)N[C@@H](CCCCN)C(=O)N[C@@H](CC(C)C)C(=O)N[C@@H](CCC(N)=O)C(=O)N[C@@H](CC(=O)O)C(=O)N[C@H](C(=O)N[C@@H](CCSC)C(=O)N[C@@H](CO)C(=O)N[C@@H](CCCNC(=N)N)C(N)=O)[C@@H](C)CC)C(C)C)[C@@H](C)O [GHRH analogue #4, [D-Ala^2, Ala^8, D-Tyr^10, Ala^15, D-Lys^21, Lys^22] hGHRH(1-29)-NH2] (H-Y[dA]DAIFTAS[dY]RKVLAQLSAR[dK]KLQDIMSR-NH2; N-terminus assumed)
Residual concentration [1]: 100 ± 0 % of initial concentration
remaining at 8 min, 15 µM [1]: 98 ± 2%
remaining at 0.25 h, 15 µM [1]: 100%
remaining at 0.5 h, 15 µM [1]: 99 ± 1%
remaining at 1 h, 15 µM [1]: 97 ± 3%
Relative binding affinity (R1) in comparison with hGHRH(1-29)NH2 in BHK cells expressing the hGHRH receptor (human GHRH receptor [2]): 0.05 ± 0.01

B1: [D-Ala2, Ala8, Ala15, Lys22] hGHRH(1-29)-NH2 (peptide)
peptide: Y[dA]DAIFTASYRKVLAQLSARKKLQDIMSR-NH2
modifications: N-terminus assumed
SMILES: CC[C@H](C)[C@H](NC(=O)[C@H](C)NC(=O)[C@H](CC(=O)O)NC(=O)[C@@H](C)NC(=O)[C@@H](N)Cc1ccc(O)cc1)C(=O)N[C@@H](Cc1ccccc1)C(=O)N[C@H](C(=O)N[C@@H](C)C(=O)N[C@@H](CO)C(=O)N[C@@H](Cc1ccc(O)cc1)C(=O)N[C@@H](CCCNC(=N)N)C(=O)N[C@@H](CCCCN)C(=O)N[C@H](C(=O)N[C@@H](CC(C)C)C(=O)N[C@@H](C)C(=O)N[C@@H](CCC(N)=O)C(=O)N[C@@H](CC(C)C)C(=O)N[C@@H](CO)C(=O)N[C@@H](C)C(=O)N[C@@H](CCCNC(=N)N)C(=O)N[C@@H](CCCCN)C(=O)N[C@@H](CCCCN)C(=O)N[C@@H](CC(C)C)C(=O)N[C@@H](CCC(N)=O)C(=O)N[C@@H](CC(=O)O)C(=O)N[C@H](C(=O)N[C@@H](CCSC)C(=O)N[C@@H](CO)C(=O)N[C@@H](CCCNC(=N)N)C(N)=O)[C@@H](C)CC)C(C)C)[C@@H](C)O
notes: Synthetic 29-residue amide; also called GHRH analogue #1; No. 1
IC50 (human GHRH receptor [3]): 0.033 nM
relative binding affinity (R1) in comparison with hGHRH(1-29)NH2 (human GHRH receptor [3]): 499 ratio IC50 of hGHRH(1-29)-NH2 / IC50 analogue
relative binding affinity in rat anterior pituitary (compared to hGHRH(1-29)-NH2) (rat GHRH receptor): 13.3 fold against hGHRH(1-29)-NH2

B2: [Ala8, Ala9, Ala15, Ala22] hGHRH(1-29)-NH2 (peptide)
peptide: YADAIFTAAYRKVLAQLSARKALQDIMSR-NH2
notes: Synthetic 29-residue amide; also called GHRH analogue #2; No. 2
IC50 (human GHRH receptor [3]): 0.77 nM
relative binding affinity (R1) in comparison with hGHRH(1-29)NH2 (human GHRH receptor [3]): 3.7 ratio IC50 of hGHRH(1-29)-NH2 / IC50 analogue
relative binding affinity in rat anterior pituitary (compared to hGHRH(1-29)-NH2) (rat GHRH receptor): 7.74 fold against hGHRH(1-29)-NH2
